The source of these data is DBAASP.

Converted amounts (≈) assume the structure as drawn.

Among the test systems are Acinetobacter baumannii; Escherichia coli IP76-24; Microsporum canis IP1194.
What all share (test): ≥ marks a high value that may be exact or a test limit, other limits are often not marked, values filed in µg/mL are converted to µM
Experiment [1] relates to Bacillus megaterium ATCC 19213.
The test system of experiment [2] is Bacillus subtilis NBRC 3513.
Experiment [3] deals with Staphylococcus aureus NBRC 12732.
Experiment [4] deals with Staphylococcus epidermidis NBRC 12933.
Experiment [5] relates to Aeromonas caviae IP67-16T.
Experiment [6] deals with Aspergillus fumigatus IP1025-70.
Experiment [7] concerns Aspergillus niger IP218-53.
In experiment [8] the test system is Candida albicans IP884-65.
The subject of experiment [9] is Candida albicans IP886-65.
In experiment [10] the test system is Cryptococcus neoformans IP960-67.
Experiment [11] has as its system Cryptococcus neoformans IP962-67.
The test system of experiment [12] is Enterococcus faecalis IP103214.
Experiment [13] has as its system Nocardia brasiliensis IP16-80.
Experiment [14] concerns Saccharomyces cerevisiae IP118079.
Experiment [15] relates to Staphylococcus aureus IP76-25.
Experiment [16] deals with Trichophyton mentagrophytes IP877-71.
Experiment [17] has as its system Trichophyton rubrum IP2043-92.
Experiment [18] concerns Trichophyton simii IP1063-74.
The test system of experiment [19] is Trichophyton simii J43 IP903-65.
Experiment [20] has as its system Bacillus megaterium CGMCC 1.0459.
Experiment [21] relates to Micrococcus luteus CGMCC 1.0290.
For experiment [22], the system named is Escherichia coli ATCC 25922.
Experiment [23] relates to Staphylococcus aureus ATCC 25929.
In experiment [24] the test system is Staphylococcus aureus USA 300.
Experiment [25] has as its system Staphylococcus epidermidis ATCC 35984.

For `CC[C@H](C)[C@H](NC(=O)[C@H](C)N)C(=O)N[C@@H](Cc1ccccc1)C(=O)N[C@H](C(=O)N[C@@H](Cc1ccccc1)C(=O)N[C@H](C(=O)N[C@@H](CCCN=C(N)N)C(=O)N[C@@H](Cc1c[nH]c2ccccc12)C(=O)N[C@@H](CC(C)C)C(=O)N[C@@H](CC(C)C)C(=O)N[C@@H](CCCCN)C(=O)O)[C@@H](C)CC)[C@@H](C)CC` [AIFIFIRWLLK], the MIC in experiment [1] was 16 µM (≈ 22.7 µg/mL); in experiment [2] it was at least 32 µM; in experiment [3], 16 µM (≈ 22.7 µg/mL); in [4], at least 32 µM.

In the case of `CSCC[C@H](NC(=O)[C@H](Cc1c[nH]c2ccccc12)NC(=O)[C@H](CC(C)C)NC(=O)[C@H](C)N)C(=O)N[C@H](C(=O)N[C@@H](CC(C)C)C(=O)N[C@@H](CC(C)C)C(=O)N[C@@H](CCCCN)C(=O)N[C@@H](CCCCN)C(=O)N[C@H](C(=O)N[C@@H](CC(C)C)C(=O)N[C@@H](CCCCN)C(=O)N[C@@H](C)C(=O)N[C@@H](C)C(=O)N[C@@H](C)C(=O)N[C@@H](CCCCN)C(=O)N[C@@H](C)C(=O)N[C@@H](CC(C)C)C(=O)N[C@@H](CC(N)=O)C(=O)N[C@@H](C)C(=O)N[C@H](C(=O)N[C@@H](CC(C)C)C(=O)N[C@H](C(=O)NCC(=O)N[C@@H](C)C(=O)N[C@@H](CC(N)=O)C(=O)N[C@@H](C)C(=O)O)C(C)C)C(C)C)C(C)C)[C@@H](C)O` [ALWMTLLKKVLKAAAKALNAVLVGANA], the MIC in the experiment on Acinetobacter baumannii was determined as 4.5 µM (≈ 12.5 µg/mL); in experiment [5] it was 0.5 µM (≈ 1.39 µg/mL); in [6] it was 20 µM (≈ 55.6 µg/mL); in experiment [7] it was 30 µM (≈ 83.4 µg/mL); in experiment [8], 20 µM (≈ 55.6 µg/mL); in experiment [9], 20 µM (≈ 55.6 µg/mL). The minimal inhibitory concentration (MIC) in experiment [10] worked out at 2 µM (≈ 5.56 µg/mL); in experiment [11] it was 1 µM (≈ 2.78 µg/mL); in experiment [12], 20 µM (≈ 55.6 µg/mL); against Escherichia coli IP76-24, 4 µM (≈ 11.1 µg/mL); in the experiment with Microsporum canis IP1194 it was 15 µM (≈ 41.7 µg/mL); in experiment [13] it was 10 µM (≈ 27.8 µg/mL). Further, the minimal inhibitory concentration (MIC) in experiment [14] is 20 µM (≈ 55.6 µg/mL); in experiment [15], 10 µM (≈ 27.8 µg/mL); in experiment [16], 20 µM (≈ 55.6 µg/mL); in experiment [17] it was at least 40 µM; in experiment [18], 30 µM (≈ 83.4 µg/mL); in [19] it was 20 µM (≈ 55.6 µg/mL).

`CC(C)C[C@@H]1NC(=O)[C@@H]2CSSC[C@@H](C(=O)N[C@@H](CCCN=C(N)N)C(=O)O)NC(=O)[C@H](C(C)C)NC(=O)[C@@H]3CSSC[C@H](NC(=O)[C@H](C)NC(=O)[C@H](CO)NC(=O)[C@H](Cc4cnc[nH]4)NC(=O)[C@H](CC(N)=O)NC(=O)[C@@H]4CCCN4C(=O)[C@H](CO)NC(=O)[C@H](C(C)C)NC(=O)[C@H](Cc4c[nH]c5ccccc45)NC(=O)[C@H](CCCCN)NC(=O)[C@H](CO)NC(=O)[C@H](CCC(N)=O)NC(=O)[C@H](Cc4ccccc4)NC(=O)[C@H](CO)NC(=O)[C@H](CC(C)C)NC(=O)[C@H](C(C)C)NC(=O)[C@H](CC(=O)O)NC(=O)[C@@H](NC(=O)[C@H](CO)NC(=O)[C@@H](N)Cc4ccccc4)CSSC[C@H](NC(=O)[C@H](CCCCN)NC(=O)CNC(=O)CNC(=O)[C@H](CCCCN)NC(=O)[C@H](CCCN=C(N)N)NC(=O)[C@H](CCCN=C(N)N)NC(=O)[C@H](CCC(N)=O)NC(=O)[C@H](C)NC1=O)C(=O)N[C@@H](CCCCN)C(=O)N[C@@H](CC(N)=O)C(=O)NCC(=O)N[C@@H](CC(=O)O)C(=O)N3)C(=O)N[C@@H](C)C(=O)N[C@@H](C(C)C)C(=O)N[C@@H](CCCN=C(N)N)C(=O)N2` [FSCDVLSFQSKWVSPNHSACAVRCLAQRRKGGKCKNGDCVCR]: the MIC in [20] came to 1.5 µM (≈ 6.96 µg/mL); in experiment [21] it was 4.54 µM (≈ 21.1 µg/mL).

As for `CC(C)C[C@H](NC(=O)[C@H](CC(C)C)NC(=O)[C@@H](NC(=O)[C@@H]1CCCN1C(=O)[C@H](CCCCN)NC(=O)[C@@H](N)[C@@H](C)O)[C@@H](C)O)C(=O)NCC(=O)N[C@@H](CC(C)C)C(=O)N1CCC[C@H]1C(=O)N[C@@H](CC(C)C)C(=O)NCC(=O)N[C@@H](C)C(=O)NCC(=O)N1CCC[C@H]1C(=O)N[C@@H](C)C(=O)N[C@@H](C)C(=O)NCC(=O)N1CCC[C@H]1C(=O)NCC(=O)N[C@@H](CCCCN)C(=O)N[C@@H](CCCN=C(N)N)C(N)=O` [TKPTLLGLPLGAGPAAGPGKR], the MIC was 16 µM (≈ 31.5 µg/mL) in [22] and 8 µM (≈ 15.8 µg/mL) in experiment [23].

On to `CC[C@H](C)[C@H](NC(=O)[C@H](C)NC(=O)[C@H](CCCCN)NC(=O)[C@@H](NC(=O)[C@@H](NC(=O)[C@H](CCCCN)NC(=O)[C@@H](NC(=O)[C@@H](NC(=O)[C@@H](NC(=O)CNC(=O)[C@@H](N)C(C)C)[C@@H](C)O)[C@@H](C)CC)[C@@H](C)CC)[C@@H](C)CC)[C@@H](C)CC)C(=O)N[C@H](C(=O)N[C@@H](CC(=O)O)C(=O)N[C@H](C(=O)N[C@@H](Cc1ccccc1)C(=O)N[C@@H](C)C(=O)N[C@@H](CCCCN)C(=O)O)[C@@H](C)CC)[C@@H](C)CC` [VGTIIKIIKAIIDIFAK], for which the minimum inhibitory concentration (MIC) in experiment [24] and in experiment [25] was at least 64 µM each time.

By MIC is commonly meant the least concentration at which growth counts as inhibited. A lower MIC goes with greater potency.
